Assays:
Format in all cases: cell-based
[1] = tested on: Multi-drug resistant Pseudomonas aeruginosa (MDRP: ATCC BAA-2110); assay: Number of MDRP bacteria after ALA + EDTA with or without PDT (LED 410 nm); conditions: no PDT, 18 hours of culture, ALA 1 mg/ml, EDTA 400 mg/ml where added, start 1×10^9 CFU/ml
Procedure: Multi-drug resistant Pseudomonas aeruginosa (MDRP: ATCC BAA-2110) was cultured for 24 hours at 37° C. with tryptic soy broth medium (TBS: from DIFCO). Then, the TBS medium comprising MDRP at 1×10^9 CFU/ml was dispensed in a 12-well plate at 1 ml per well, and ALA was added to a final concentration of 1 mg/ml and EDTA was added to a final concentration of 400 mg/ml. These were divided into the group subjected to PDT (PDT group) and the group not subjected to PDT (non-PDT group) (each n=1). For the control group, only ALA at a final concentration of 1 mg/ml was added to 1 ml of the TBS medium comprising MDRP at 1×10^9 CFU/ml, and PDT was not carried out. The control group and the non-PDT group were cultured for 18 hours, and the number of bacteria in each well was counted. The PDT group was cultured for 18 hours, irradiated with LED (410 nm) at 50 J/cm^2, and then the number of bacteria was counted.

[2] = tested on: Multi-drug resistant Pseudomonas aeruginosa (MDRP: ATCC BAA-2110); assay: HPLC measurement of coproporphyrinogen III (CPIII) and protoporphyrin IX (PpIX) in MDRP cultured with ALA / ALA + EDTA; conditions: 4 hours after start of culture, ALA 0.5 mg/ml, EDTA 400 mg/ml where added
Procedure: Multi-drug resistant Pseudomonas aeruginosa (MDRP: ATCC BAA-2110) was placed in tryptic soy broth medium (TBS: from DIFCO), and cultured at 37° C. for 24 hours. With an absorptiometer, the TBS medium comprising the cultured MDRP was adjusted to 1×10^9 CFU (Colony forming unit)/ml. In a 12-well plate, the following solutions (1)-(3) were each prepared and cultured. (1): TBS medium comprising MDRP adjusted to 1×10^9 CFU/ml, (2): a solution of (1) and ALA added to a final concentration of 0.5 mg/ml, and (3): a solution of (1) and ALA added to a final concentration of 0.5 mg/ml and EDTA added to a final concentration of 400 mg/ml. The solutions were collected 4 hours after the start of culture, and suspended in 0.25 ml of PBS per 1 g of the pelleted bacteria. To 0.2 ml of the suspension, 0.01 ml of 50% acetic acid and 0.9 ml of DMF/IPA (100:1) were added, vortexed, and separated by centrifugation (14, 000 rpm, 5 min, 4° C.). The concentrations of coproporphyrinogen III (CPIII) and protoporphyrin IX (PpIX) in the supernatant after centrifugal separation were measured with HPLC.

[3] = tested on: Multi-drug resistant Pseudomonas aeruginosa (MDRP: BAA-2110); assay: Number of MDRP bacteria after ALA + chelating agent other than EDTA with or without LED irradiation (PDT); conditions: Irradiation No, average values
Procedure: Multi-drug resistant Pseudomonas aeruginosa (MDRP: BAA-2110) was cultured in tryptic soy broth medium (TBS: from DIFCO) for 24 hours at 37° C. Next, the TBS medium comprising MDRP was dispensed in a 12-well dish at 1 ml per well (1×10^4−2×10^5 CFU/mL). ALA at a final concentration of 1 mg/ml and a chelating agent other than EDTA (2.5 mg/mL of citric acid, 2.5 mg/mL of malic acid, 1 mg/mL of diethylenetriaminepentaacetic acid (DTPA), 1 mg/mL of triethylenetetramine-N,N,N′,N″,N′″,N″′-hexaacetic acid, 1 mg/mL of N-(2-hydroxyethyl) iminodiacetic acid, and 1 mg/mL of deferoxamine mesylate, each at final concentration) were added to each dish. For the control group, only ALA at a final concentration of 1 mg/ml was added to 1 ml of the TBS medium comprising MDRP. Next, these were cultured for 5 hours, and the number of bacteria in each well was counted. The PDT group was cultured for 5 hours, and then irradiated with LED (410 nm) at 50 J/cm^2, after which the number of bacteria was counted, and further the number of bacteria at 19 hours after irradiation was also counted.

[4] = supernatant of bacterial extract, HPLC

NCC(=O)CCC(=O)O [ALA, 5-aminolevulinic acid]
Bacterial count (CFU/ml) ([1]; listed as Control): 4.2 × 10^9 CFU/ml | Bacterial count (CFU/ml) ([1]; listed as control): 4.2×10^9 CFU/ml | proportion of PpIX against CPIII [2]: approximately 5.5% | CPIII [2, 4]: 889.6 nM | PpIX [2, 4]: 49.0 nM | 5 hours after addition of ALA + chelating agent (CFU/mL) ([3]; ALA 1 mg/ml): 3.6 × 10^5 CFU/mL | 19 hours after irradiation (CFU/mL) ([3]; ALA 1 mg/ml): 1.4 × 10^9 CFU/mL | At the time of culture (CFU/mL) ([3]; starting count): 5.7 × 10^4 CFU/mL
